Data on two compounds can be found in patent US9616006B2, “Methods and compositions for treating dermatological diseases and conditions” (priority 2007, dated 2017).

Each structure is given as a SMILES string.

Data set [1] concerns PGE2. The data set is described as follows: TPA-induced PGE2 production in keratinocytes (ELISA). It counts as cell-based, human. Conditions: 100 uM. For orientation: ELISA stands for enzyme-linked immunosorbent assay.
The test system of data set [2] is IL-6. The data set can be described thus: TPA-induced IL-6 production in keratinocytes (ELISA). It counts as cell-based, human. Conditions: 100 uM.
In data set [3] the test system is IL-8. The data set is described as follows: TPA-induced IL-8 production in keratinocytes (ELISA). It counts as cell-based, human. Conditions: 100 uM.
Data set [4] relates to TNF-α. The data set can be described thus: TPA-induced TNF-α production in keratinocytes (ELISA). It counts as cell-based, human. The procedure:
(§1) In one study, various concentrations of DHE were added to culture medium and these media were placed on human fibroblast cell cultures (results shown in FIG. 1). Cells were either not induced or induced with UVB radiation to stimulate cytokine/PGE-2 production. At 24 hours after treatment, the cell culture medium was removed and assayed by ELISA methods for the expression of PGE-2, various cytokines and chemokines.
(§2) When similar experiments were carried out with human keratinocytes, DHE was again found to markedly suppress the UVR induction of PGE-2, with a concentration of 50 uM inhibiting the production of PGE-2 by over 60% (results shown in FIG. 2). […] Further, since PGE-2 is known to be a principal factor in the development of actinic keratosis and skin cancer, DHE can also be used in treating these conditions.
Inflammatory mediators produced in the skin contribute to the development and propagation of such diseases as rosacea, psoriasis and atopic dermatitis. While many inflammatory mediators are involved in these diseases, TNF-α is known to be a major cytokine involved in psoriasis. For atopic dermatitis, TNF-α, IL-8, and MCP-1 are important mediators of inflammation in these diseases. DHE is effective in suppressing the TPA-induced (TPA is tetradecanolyl phorbol ester) production of TNF-α by approximately 50% at a 100 micromolar concentration (results shown in FIG. 3).
(§3) DHE and IE both have inhibitory effects on production of the inflammatory mediators in keratinocytes.

For data set [5], the system named is PGE2. The data set can be described thus: UV-induced PGE2 production in keratinocytes (ELISA). It counts as cell-based, human. The procedure: as §1, §2, §3
Data set [6] has as its system IL-6. The data set can be described thus: UV-induced IL-6 production in keratinocytes (ELISA). It counts as cell-based, human. Conditions: 100 uM. How it is done:
as §1, §2, §3

In data set [7] the test system is IL-8. The data set is described as follows: UV-induced IL-8 production in keratinocytes (ELISA). It counts as cell-based, human. Conditions: 100 uM. How it is done: as §1, §2, §3
The test system of data set [8] is TNF-α. The data set can be described thus: UV-induced TNF-α production in keratinocytes (ELISA). It counts as cell-based, human. Conditions: 100 uM. How it is done:
as §1, §2, §3

For data set [9], the system named is PGE-2. The data set can be described thus: IL-1-induced PGE-2 production in fibroblasts (ELISA). Conditions: Fibroblasts (IL-1); 100 uM. It counts as cell-based, human. The procedure: (§4) In one study, various concentrations of DHE were added to culture medium and these media were placed on human fibroblast cell cultures (results shown in FIG. 1). […] At 24 hours after treatment, the cell culture medium was removed and assayed by ELISA methods for the expression of PGE-2, various cytokines and chemokines.
(§5) DHE and IE both have inhibitory effects on the production of the inflammatory mediators in fibroblasts.

Data set [10] concerns IL-6. The data set is described as follows: IL-1-induced IL-6 production in fibroblasts (ELISA). The class given is cell-based, human. Conditions: Fibroblasts (IL-1); 100 uM. The procedure:
as §4, §5

The test system of data set [11] is IL-8. The data set can be described thus: IL-1-induced IL-8 production in fibroblasts (ELISA). The class given is cell-based, human. Conditions: Fibroblasts (IL-1); 100 uM.
The test system of data set [12] is PGE-2. The data set can be described thus: UV-induced PGE-2 production in fibroblasts (ELISA). The class given is cell-based, human. How it is done:
as §1
As is shown in FIG. 1, UV radiation (UVR) treatment of fibroblasts results in a 6 fold increase in PGE-2.
as §5

Data set [13] relates to IL-6. The data set is described as follows: UV-induced IL-6 production in fibroblasts (ELISA). Conditions: 100 uM. It counts as cell-based, human. The procedure: as §1, §5
For data set [14], the system named is IL-8. The data set is described as follows: UV-induced IL-8 production in fibroblasts (ELISA). The class given is cell-based, human. Conditions: 100 uM. The procedure:
as §1, §5

For data set [15], the system named is MCP-1. The data set is described as follows: LPS-induced MCP-1 production in monocytes. It counts as cell-based. From the text: (§6) DHE and IE both have inhibitory effects on the production of the inflammatory mediators in monocytes.
The test system of data set [16] is IL-12. The data set can be described thus: LPS-induced IL-12 production in monocytes. The class given is cell-based. Conditions: 100 uM.
Text: as §6

Data set [17] deals with TNF-α. The data set can be described thus: LPS-induced TNF-α production in monocytes. It counts as cell-based.
Text: as §6

In data set [18] the test system is IL-8. The data set can be described thus: LPS-induced IL-8 production in monocytes. It counts as cell-based.
Text: as §6

The subject of data set [19] is MCP-1. The data set can be described thus: TNF-α-induced MCP-1 production in monocytes. Conditions: 100 uM. The class given is cell-based.
Text: as §6

The subject of data set [20] is IL-8. The data set is described as follows: TNF-α-induced IL-8 production in monocytes. The class given is cell-based. Conditions: 100 uM.
Text: as §6

The test system of data set [21] is IL-12. The data set can be described thus: TNF-α-induced IL-12 production in monocytes. It counts as cell-based. Conditions: 100 uM.
Text: as §6

For data set [22], the system named is collagen 1 mRNA. The data set is described as follows: Collagen mRNA in fibroblasts by RT-PCR. The class given is cell-based, human. Conditions: fibroblast cell cultures treated 72 hours. The text has this: (§7) The presently claimed and disclosed inventive concept(s) further contemplates use of various DHE, IE and EV compositions and salts, esters, ethers, and derivatives thereof to mitigate the effects of aging on the skin. For all aging studies, normal human fibroblast cell cultures were used. These cells normally produce collagen, elastin and hyaluronic acid. As the skin ages, the fibroblasts in the dermis lose their ability to produce these three key components of skin, and the skin consequently loses elasticity, thickness and smooth texture. In addition, as fibroblasts age, they increase the expression of certain enzymes that destroy collagen and elastin. There are about 13 of these enzymes, collectively referred to as MMPs (matrix metalloproteinases). One of the principal MMPs, MMP-1, is responsible for collagen degradation. […] Fibroblast cell cultures were treated with either IE, DHE or EV for 72 hours at which time the amount of collagen mRNA present in the cells was determined.

Data set [23] concerns elastin mRNA. The data set can be described thus: Elastin mRNA in human dermal fibroblasts by RT-PCR. The class given is cell-based. Conditions: 72 hours.
Text: as §7, with “In addition, as fibroblasts age, they increase the expression of certain enzymes that destroy collagen and elastin.” left out, “The image is from an electrophoresis gel of DNA amplified by PCR from fibroblast mRNA. This gel was analyzed and” for “Fibroblast cell cultures were treated with either IE, DHE or EV for 72 hours at which time”, “density” for “amount”, “each band quantified by image analysis software.” for “collagen mRNA present in the cells was determined.”

Data set [24] concerns HAS-2 (Hyaluronic acid synthase-2). The data set is described as follows: HAS-2 mRNA in fibroblasts by RT-PCR. It counts as cell-based, human. Conditions: 72 hours. From the text:
(§8) The presently claimed and disclosed inventive concept(s) further contemplates use of various DHE, IE and EV compositions and salts, esters, ethers, and derivatives thereof to mitigate the effects of aging on the skin. For all aging studies, normal human fibroblast cell cultures were used. These cells normally produce collagen, elastin and hyaluronic acid. As the skin ages, the fibroblasts in the dermis lose their ability to produce these three key components of skin, and the skin consequently loses elasticity, thickness and smooth texture. In addition, as fibroblasts age, they increase the expression of certain enzymes that destroy collagen and elastin. There are about 13 of these enzymes, collectively referred to as MMPs (matrix metalloproteinases). One of the principal MMPs, MMP-1, is responsible for collagen degradation. For experiments herein to determine the effects of DHE, IE and EV on collagen, elastin and hyaluronic acid, fibroblasts were treated with the compounds for 72 hours, mRNA was then isolated, and analyzed for abundance by RT-PCR (Reverse transcriptase-Polymerase Chain Reaction).
DHE, IE and EV, are also shown herein to stimulate mRNA for HAS-2. HAS-2 (Hyaluronic acid synthase-2) is the enzyme that manufactures hyaluronic acid (HA) in the skin. HA is a glycosaminoglycan important for maintaining moisture and suppleness in the skin. […] As the skin ages, the production of HA decreases and this causes the skin to sag and become thin.

The test system of data set [25] is TIMP-1. The data set can be described thus: TIMP-1 mRNA in fibroblasts by PCR. The class given is cell-based, human.
Text: as §8
Fibroblasts in the skin not only produce enzymes (MMPs) that destroy the skin matrix but they also produce proteins (Tissue Inhibitors of Metalloproteinases, i.e., TIMPS) that inhibit these enzymes. There are several TIMPs, but one that is most important for inhibiting MMPs is TIMP-1. […] Shown in FIG. 11 is PCR data showing the up-regulation of TIMP-1 mRNA by these compounds.

The subject of data set [26] is MMP-1, MMP-3, MMP-8, MMP-9 MMP-10 and MMP-13. The data set is described as follows: MMP protein abundance in human dermal fibroblasts (protein array blotting). The class given is cell-based. From the text: As mentioned above, as fibroblasts age they increase their production of MMP enzymes that destroy collagen and elastin, particularly collagenase, MMP-1. We utilized a protein array blotting technique to determine the effect of DHE, IE and EV on the protein abundance of these enzymes. As shown below, EV is able to reduce the level of several MMPs in human dermal fibroblasts, including MMP-1, MMP-3, MMP-8, MMP-9 MMP-10 and MMP-13 (FIG. 12). This remarkable effect makes this compound an ideal addition to an anti-aging product since MMP levels in aging skin are quite high.

Data set [27] is classed as physicochemical. Conditions: water-oil emulsion. How it is done: This surprising and unexpected finding meant that it was necessary to identify a carrier/vehicle system that would accommodate EV in a soluble form and at the same time maintain its chemical stability (defined herein as at least 95% of the ethyl vanillin remaining chemically intact for at least 3 months). In one formulation contemplated herein, EV is dissolved in caprylic/capric triglyceride or other fatty acid triglyceride and then mixed into a silicone fluid wherein the silicone is the primary (greatest percentage) component of the formulation. The cosmetic silicone fluid used in this embodiment accepts the caprylic/capric triglyceride and allows the EV to remain in solution. […] Therefore, the presently claimed and disclosed inventive concept(s) contemplates formulations of EV in non-aqueous solutions, particularly comprising at least 20% to 25% to 30% to 35% to 40% to 45% to 50%, or up to 60%, 70%, 80% or 90% silicone thereby explicitly excluding water-in-oil, or oil-in-water, emulsions. Additionally, besides caprylic capric triglyceride, EV can be solubilized in jojoba oil, sunflower oil or squalane or any other solubilizer which is accepted by the silicones. […]

The mark [28] stands for this setting: monocytes, LPS-induced (FIG. 4).

As to `CCCc1ccc(O)c(OC)c1` [DHE, dihydroeugenol], the “Percent Inhibition of PGE2” value came out at 77% in data set [1] and 68% in data set [5] (Keratinocytes (UV), 100 uM). Also, the “Percent Inhibition of IL-6” value is reported as 30% in data set [2], 30% in data set [6], 47% in [10] and 49% in data set [13]. In addition, the “Percent Inhibition of IL-8” value in [3] is 45%; in data set [7], 40%; in data set [11], 46%; in data set [14], 11%; in data set [18] (Monocytes (LPS), 100 uM), 70%; in [20], 72%. The “Percent Inhibition of TNF-α” value in [4] (Keratinocytes (TPA), 100 uM) came out at 12%; in data set [8] it was 31%; in [17] (Monocytes (LPS), 100 uM), 78%. For the same compound, the “suppression of TPA-induced production of TNF-α” value in [4] (keratinocytes (FIG. 3), 100 micromolar) is “approximately 50%”. The “inhibition of UVR-induced production of PGE-2” value in [5] (human keratinocytes, 50 uM) is on record as “over 60%”. For the same compound, the “Percent Inhibition of PGE-2” value in data set [9] was found to be 86%; in data set [12] (Fibroblasts (UV), 100 uM), 67%. In addition, the “UVR induction of PGE-2” value in [12] (human fibroblasts, 10 micromolar in culture media after irradiation, 24 hours) is recorded as “completely blocked”. The “Percent Inhibition of MCP-1” value turned out to be 60% in data set [15] (Monocytes (LPS), 100 uM) and 46% in data set [19]. In [15] (setting [28]), the “production of the chemokine MCP-1” value is recorded as “can inhibit the production”. The “Percent Inhibition of IL-12” value in [16] worked out at 66%; in data set [21], 98%. Moreover, in data set [17] (setting [28]), the “production of the cytokine TNF-α” value is “can inhibit the production”. For the same compound, the “production of the chemokine IL-8” value in [18] (setting [28]) is listed as “can inhibit the production”. Also, the “collagen production (collagen mRNA)” value in [22] is “stimulation”. In [23], the “elastin levels (elastin mRNA)” value is recorded as “increase”. In [24], the “mRNA for HAS-2” value was “stimulate”. Besides, in data set [25], the “production of TIMP-1 (TIMP-1 mRNA)” value is recorded as “significantly stimulate”.

As to `CCOc1cc(C=O)ccc1O` [EV, ethyl vanillin], the “collagen production (collagen mRNA)” value in data set [22] is given as “stimulation”. The “elastin levels (elastin mRNA)” value in data set [23] was “increase”. Besides, the “mRNA for HAS-2” value in data set [24] is “stimulate”. For the same compound, in data set [25], the “production of TIMP-1 (TIMP-1 mRNA)” value is “significantly stimulate”. For the same compound, in data set [26], the “level of several MMPs (protein abundance)” value is “reduce”. In data set [27], the “time within which EV significantly decomposes” value fell in the range of 24 to 48 h.
